# Laboratory results as given in patent US20240190872A1, “FABI INHIBITORS FOR GRAM-NEGATIVE PATHOGENS” (THE BOARD OF TRUSTEES OF THE UNIVERSITY OF ILLINOIS, priority 2021, published 2024).
# Columns and labels:
# [1] = tested on: A. baumannii AR 0033; test: microbe, parasite or virus in culture; format: cell-based; settings: Acinetobacter baumannii, AR0033, read-out: MIC A. baumannii AR 0033, clinical isolate
# Procedure, shortened: (§1)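 Broth microdilution per CLSI guidelines in cation-adjusted Mueller-Hinton broth, run in biological triplicate.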
# [2] = tested on: E. coli AR 0085; test: microbe, parasite or virus in culture; format: cell-based; settings: Escherichia coli, AR0085, read-out: MIC E. coli AR 0085, clinical isolate
# Procedure, shortened: as §1
# [3] = tested on: K. pneumoniae AR 0560; test: microbe, parasite or virus in culture; format: cell-based; settings: Klebsiella pneumoniae, AR0560, read-out: MIC K. pneumoniae AR 0560, clinical isolate
# Procedure, shortened: as §1
# [4] = tested on: H. sapiens HFF-1; test: In-vitro cytotoxicity; format: cell-based
# [5] = tested on: H. sapiens A549; test: In-vitro cytotoxicity; format: cell-based
# [6] = Plasma stability; format: in vitro ADME
# [7] = in vivo; settings: female, C57BL/6, mouse, in vivo
# Procedure: Mouse MTD of Debio-1452-NH3. The protocol was approved by the IACUC at the University of Illinois at Urbana-Champaign (Protocol Number:16144). In these studies, 10- to 12-week-old female C57BL/6 mice purchased from Charles River were used. The maximum tolerate dose (MTD) of single compound was determined first. Debio-1452 amine analogues were formulated in 20% sulfobutyl ether β-cyclodextrin in sterile water. Debio-1452-NH3 (1), and compounds 2 and 3 were given by IP injection and mice were monitored for signs of toxicity for 2 weeks (single dose). For multiple dose, the compound was given by daily IP for 5 consecutive days and mice were monitored for signs of toxicity for 1 month. MTD was the highest dosage with acceptable toxicity (e.g. <20% weight loss). Single dose MTDs were initially determined. […] The MTD of Debio-1452-NH3 (1) was used to inform the dosing schedule used in subsequent efficacy studies.
# [8] = Hepatocyte stability; format: in vitro ADME
# [9] = tested on: S. aureus USA300 LAC; test: Neutropenic mouse thigh infection; format: in vivo, CD-1 mice; settings: 5 mg/kg, r.o.
# Procedure: FIG. 7. […] A) Neutropenic mouse thigh infection model initiated in female BALB/c mice with A. baumannii AR-88 (1.36×10^5 CFU per mouse intramuscular, left thigh) were treated with vehicle (5 mice) or fabimycin (10 mice) four times a day (75 mg/kg intravenously) and bacterial burden evaluated at 26 h post-infection. B) Neutropenic mouse thigh infection initiated in CD-1 mice with S. aureus USA300 LAC (2.3×10^6 CFU per mouse intramuscular in thigh) were treated with vehicle (8 mice) or FabI inhibitor (8 mice per group) 2 and 7 h post-infection (5 mg/kg retro-orbital IV), […]
# (§2) With formulation, MTD, and pharmacokinetic data in hand, the efficacy of fabimycin was evaluated in murine infection models. To start, a comparative assessment was made of fabimycin and Debio-1452-NH3 in two murine neutropenic infection models using a dosing regimen that is at the MTD for Debio-1452-NH3 but below the MTD for fabimycin (three doses, intramuscular, at 50 mg/kg).
# (§3) Chart 1. Summary of Fabimycin in vivo models.
# [10] = tested on: A. baumannii AR-299; test: Acute pneumonia (lung) infection; format: in vivo, CD-1 mice; settings: 50 mg/kg, intramuscular (QD), 48 h
# Procedure: as §2, §3
# [11] = tested on: E. coli AR-55; test: Murine urinary tract infection (UTI) model; format: in vivo, C3H/HeJ mice; settings: TID
# Procedure: FIG. 4. In-vivo efficacy of fabimycin in a murine UTI. After inducing diuresis, infection initiated in C3H/HeJ mice (8 per arm, 1.38×10^9 CFU/mouse transurethral) with E. coli AR-55 and treated with fabimycin at varying concentrations three times daily with bacterial enumeration at 168 h post-infection. Percentage in parenthesis indicates the percentage of animals with bacterial counts below the limit of detection (LOD).
# UTIs represent one of the biggest risks for healthy individuals in terms of exposure to antibiotic-resistant bacteria and many individuals contract one in their lifetime (roughly 1 in 2 women and 1 in 10 men); as such, these infections from Gram-negative pathogens, particularly those that are drug-resistant, remain a major clinical challenge. As E. coli is the causative agent in the great majority of UTIs fabimycin was evaluated in a murine UTI model with a challenging, extensively resistant strain of carbapenem resistant E. coli (fabimycin MIC=2 μg/mL). When dosed at 33.3 mg/kg, TID fabimycin was able to achieve 3.0, 2.8, 2.9, and 1.9 log10 reductions in bacterial load relative to the vehicle in the spleen, bladder, liver, and kidneys tissues, respectively (FIG. 4).
# Chart 1. Summary of Fabimycin in vivo models. Log reductions are relative to the vehicle. • S. aureus • Neutropenic thigh infection w/S. aureus USA300 LAC • 5 mg/kg, r.o. • 26 h, 2.6 log reduction • A. baumannii • Neutropenic thigh infection w/A. baumannii AR-0299 • 50 mg/kg, intramuscular (2, 6, and 11 h post-infection) • 26 h, 2.3 log reduction • Acute lung infection w/A. baumannii AR-0299 • 50 mg/kg, intramuscular (QD) • 48 h, 3.9 log reduction • Neutropenic thigh infection w/A. baumannii AR-0088 • 75 mg/kg IV, QID • 26 h, 1.75 log reduction • E. coli • Urinary tract infection w/E. coli AR-0055 • 33.3 mg/kg IV, TID (100 mg/kg a day) • 168 h post-infection • Bladder—2.78 log reduction • Liver—2.85 log reduction • Spleen—3.04 log reduction • Kidneys—1.85 log reduction • Urine—2.32 log reduction
# [12] = in vitro; settings: human, plasma
# [13] = biological target: CYP 2C9 (Homo sapiens (Human), UniProt P11712); test: biochemical
# [14] = Plasma stability
# [15] = 33.3 mg/kg IV, 168 h post-infection
# Sequence of CYP 2C9 (P11712 whole entry): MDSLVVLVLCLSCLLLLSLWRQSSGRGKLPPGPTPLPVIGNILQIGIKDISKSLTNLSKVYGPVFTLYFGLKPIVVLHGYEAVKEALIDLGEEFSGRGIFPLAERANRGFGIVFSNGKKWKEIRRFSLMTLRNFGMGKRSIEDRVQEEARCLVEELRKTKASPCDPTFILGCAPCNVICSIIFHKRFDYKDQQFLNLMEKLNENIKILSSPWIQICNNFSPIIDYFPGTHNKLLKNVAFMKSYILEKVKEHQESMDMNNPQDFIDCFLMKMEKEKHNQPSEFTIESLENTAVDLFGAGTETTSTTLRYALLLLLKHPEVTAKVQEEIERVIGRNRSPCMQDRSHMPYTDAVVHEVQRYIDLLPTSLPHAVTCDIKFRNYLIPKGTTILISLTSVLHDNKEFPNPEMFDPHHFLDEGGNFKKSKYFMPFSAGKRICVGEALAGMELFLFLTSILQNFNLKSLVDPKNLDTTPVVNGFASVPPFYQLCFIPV
smiles,measurement,setting,value
"Cc1c(CN(C)C(=O)/C=C/c2cnc3c(c2)CC[C@H](N)C(=O)N3)oc2ccccc12 [(S)-11, (S,E)-3-(7-amino-8-oxo-6,7,8,9-tetrahydro-5H-pyrido[2,3-b]azepin-3-yl)-N-methyl-N-((3-methylbenzofuran-2-yl)methyl)acrylamide]",MIC,[1],8 µg/mL
same,MIC,[2],1 µg/mL
same,MIC,[3],4 µg/mL
same,inhibition at 30 µM,[4],9.5 ± 3.4%
same,IC50,[4]; cytotoxicity,112 ± 11 µM
same,inhibition at 30 µM,[5],-1.2 ± 3.5%
same,IC50,[5]; cytotoxicity,114 ± 3 µM
same,stability in rat plasma (in words),[6],excellent stability
same,MTD at 5 d,[7],200 mg/kg
same,"Hepatocyte stability, Mouse",[8],6.1 μL/min/million cells
same,log reduction relative to the vehicle,[9],2.6 log
same,log reduction relative to the vehicle,[10],3.9 log
same,"log reduction relative to the vehicle, Bladder",[11]; [15],2.78 log
same,"log reduction relative to the vehicle, Kidneys",[11]; [15],1.85 log
same,"log reduction relative to the vehicle, Liver",[11]; [15],2.85 log
same,"log reduction relative to the vehicle, Spleen",[11]; [15],3.04 log
same,"log reduction relative to the vehicle, Urine",[11]; [15],2.32 log
same,"log10 reduction in bacterial load relative to the vehicle, bladder",[11]; 33.3 mg/kg,2.8 log10
same,"log10 reduction in bacterial load relative to the vehicle, kidneys",[11]; 33.3 mg/kg,1.9 log10
same,"log10 reduction in bacterial load relative to the vehicle, liver",[11]; 33.3 mg/kg,2.9 log10
same,"log10 reduction in bacterial load relative to the vehicle, spleen",[11]; 33.3 mg/kg,3.0 log10
same,half-life,[12],23.3 h
same,IC50,[13],27 µM
same,stability in human plasma (in words),[14],excellent stability
